# Legend:
# Assay type in all cases: in vivo, Caenorhabditis elegans
# [1] = system: DAF-16 fusion protein [TJ356 daf-16::daf-16-gfp]; assay: DAF-16::GFP localization; details: ThT or curcumin treatment, no heat shock
# Protocol: For fluorescent microscopy, TJ356 zIs356 IV [daf-16::daf-16-gfp+rol-6] or CF2189 Is001(skn-1::gfp+rol-6) were paralyzed with 1 mM levamisole mounted on 1% agarose pads and imaged using Olympus BX51 (60× objective) and HCImage software (Hamamatsu). For immunofluorescence, N2, […], CB1157 unc-54(e1157) or CL4176 dvIs27 [myo-3::Aβ(3 to 42)-let 3′UTR(pAF29); pRF4 (rol-6(su1006))] worms were treated for 24-36 h with or without 50 μM ThT at 25° C. After this period the worms were collected, rinsed, and fixed in 4% paraformaldehyde overnight. […] Paramyosin and perlecans were detected with primary monoclonal antibodies 5-23 and MH3 (developed by Henry Epstein and Robert H. Waterston and obtained from the Developmental Studies Hybridoma Bank developed under the auspices of the NICHD and maintained by The University of Iowa, Department of Biology, Iowa City, Iowa 52242) and AlexaFluor 633 goat anti-mouse (Molecular Probes) as secondary antibody. Soluble oligomers and Aβ peptide were detected with anti polyclonal All (Invitrogen) and 6E10 monoclonal (Covance) primary antibodies, respectively, with AlexaFluor 568 goat anti-rabbit and AlexaFluor 488 goat anti-mouse (Molecular Probes) as secondary antibodies. Images were processed and quantified by using Image Analyst MK II (Novato, Calif.).
# [2] = system: HE250 [unc-52(e669su250)II]; assay: Worm paralysis assay, unc-52 ts mutant; details: HE250, 25° C., 36 h; 50 μM ThT, 100 μM curcumin, 100 μM rifampicin
# Protocol: (§1) Scoring for paralysis was initiated 2 and 8 days after temperature upshift for CL4176 and AM140, respectively. […] For sensitivity to EtOH or levamisole resistance, CW152 gas-1 (fc21) X and ZZ26 unc-63(x26)I worms were picked into 0.4 M EtOH or 50 μM levamisole, respectively, equilibrated for 5 min, and scored for paralysis as described above. Treated and untreated worms were compared with an unpaired t-test (implemented in Prism 4, Graphpad™ Software, Inc., San Diego, Calif., USA).
# [3] = system: HSP-16.2; assay: Western blot HSP-16.2; details: 50 μM ThT, 100 μM curcumin, 4 and 7 days of treatment
# Protocol: Peptide corresponding to amino acids 110-145 ([…]; SEQ ID NO:1) of HSP-16.2 was used to commercially synthesize antiserum (Invitrogen). Briefly, KLH-peptide was emulsified by mixing with an equal volume of Freund's adjuvant and injected into three subcutaneous dorsal sites for a total of 0.1 mg of peptide for immunization. The animals (rabbits) were bled, the blood allowed to clot and the serum collected by centrifugation. Monoclonal HSP-70 and Polyclonal HSF-1 primary antibodies were from stressgen (N27F3-4 and SPA-901, respectively).
# Worms were transferred to siliconized eppendorf tubes, washed once in S-basal and frozen in liquid N2. Standard SDS-PAGE was performed using (4-12%) NOVEX gels and IVIES running buffer. Following transfer PVDF (BioRad) membranes were incubated with antisera (1:10000) or primary antibodies (1:1000) diluted in blocking buffer and then with secondary, goat anti-rabbit IgG antibody/horseradish peroxidase conjugate (Pierce), diluted 1:25000. Detection was undertaken with chemiluminescent reagents (SuperSignal, Pierce) and standard autoradiography.
# [4] = system: CL4176 (Aβ3-42 expressed in muscle); assay: Worm paralysis assay, Aβ model; details: CL4176, 25° C.; 50 μM ThT, 100 μM curcumin
# Protocol: as §1
# [5] = system: AM140 (rmIs132[P(unc-54) Q35::YFP]); assay: Worm paralysis assay, polyQ model; details: AM140, 25° C., 8 days; 50 μM ThT, 100 μM curcumin
# Protocol: as §1
compound,measurement,setting,value
"COc1cc(/C=C/C(=O)CC(=O)/C=C/c2ccc(O)c(OC)c2)ccc1O [curcumin, reference compound]",DAF-16::GFP localization,[1],does not produce DAF-16::GFP relocalization
same,paralysis phenotype of unc-52 mutant,[2],Protection
same,HSP-16.2 protein levels,[3],increase the HSP-16.2 levels
same,proportion of paralyzed worms,[4],significantly decrease the proportion of paralyzed worms
same,proportion of paralyzed worms,[5],significantly decrease the proportion of paralyzed worms

# Source: US20110081428A1, “Use of thioflavin-like compounds to increase life span and/or health span” (priority 2009, published 2011)
